Experimental data as given in ChEMBL document CHEMBL1201862, “PubChem BioAssay data set” (2004).
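Exposure lasted 48 hours, with cells grown in 96-well plates and compounds tested at five concentrations. GI50 = concentration required for 50% inhibition of growth.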 Activity calls are given as the source filed them. No stated cut-off is given here; in the data, active = GI50 up to about 1.1 µM and inactive = higher.

Key:
Experiment in all cases: DTP human tumour cell line panel, 48 h
HOP-62 = system: HOP-62
HOP-92 = system: HOP-92
SN12C = system: SN12C
786-0 = system: 786-0
KM12 = system: KM12
U-251 = system: U-251
HT-29 = system: HT-29
HCT-116 = system: HCT-116
TK-10 = system: TK-10
SR = system: SR
A498 = system: A498
OVCAR-8 = system: OVCAR-8
MDA-MB-435 = system: MDA-MB-435
SNB-19 = system: SNB-19
MDA-MB-231 = system: MDA-MB-231
MOLT-4 = system: MOLT-4
OVCAR-4 = system: OVCAR-4
T47D = system: T47D
MCF7 = system: MCF7
CCRF-CEM = system: CCRF-CEM

Measured: GI50

CC(NC(=O)OCc1ccccc1)NC(=O)OC(C)(C)C (stereo not given)
inactive: HOP-62 > 100 µM | HOP-92 > 100 µM | SN12C > 100 µM | 786-0 > 100 µM | KM12 > 100 µM | U-251 > 100 µM | HT-29 > 100 µM | HCT-116 > 100 µM | TK-10 > 100 µM | SR > 100 µM | A498 > 100 µM | OVCAR-8 > 100 µM | MDA-MB-435 > 100 µM | SNB-19 > 100 µM | MDA-MB-231 > 100 µM | MOLT-4 84.9 µM | OVCAR-4 > 100 µM | T47D > 100 µM | MCF7 > 100 µM | CCRF-CEM > 100 µM

CC(C)=C[C@@H]1O[C@H](O)[C@@H]([C@H]2CC[C@@]3(C)[C@@H]4CC[C@H]5C(C)(C)C(=O)CC[C@@]56C[C@@]46CC[C@]23C)[C@@H]1O
inactive: HOP-62 23.7 µM | HOP-92 16.6 µM | SN12C 19.3 µM | 786-0 14.3 µM | KM12 18.1 µM | U-251 17 µM | HT-29 11.8 µM | HCT-116 15.2 µM | TK-10 16 µM | SR 9.64 µM | A498 18.3 µM | OVCAR-8 15.4 µM | MDA-MB-435 17.7 µM | SNB-19 20.9 µM | MDA-MB-231 19.5 µM | MOLT-4 14.1 µM | OVCAR-4 18.1 µM | T47D 14.6 µM | MCF7 4.14 µM | CCRF-CEM 9.93 µM

Cc1cc2c(cc1C)[n+]([O-])c(C(=O)/C=C/c1ccc3c(c1)OCO3)c(C)[n+]2[O-]
inactive: HOP-62 21 µM | HOP-92 25.6 µM | SN12C > 78.7 µM | 786-0 36.6 µM | KM12 > 100 µM | U-251 25.4 µM | HT-29 > 100 µM | HCT-116 53.8 µM | TK-10 23.9 µM | SR > 100 µM | A498 71.6 µM | OVCAR-8 > 100 µM | MDA-MB-435 > 100 µM | SNB-19 27.5 µM | MDA-MB-231 > 48.9 µM | MOLT-4 > 100 µM | OVCAR-4 > 100 µM | T47D > 86.1 µM | MCF7 > 100 µM | CCRF-CEM > 100 µM

COc1cc(O)c(C(=O)/C=C/c2ccccc2)c(OC)c1 [FLAVOKAWAIN B]
inactive: HOP-62 12 µM | HOP-92 3.72 µM | SN12C 3.29 µM | 786-0 4.62 µM | KM12 3.52 µM | U-251 4.6 µM | HT-29 7.66 µM | HCT-116 5.64 µM | TK-10 6.55 µM | SR 1.85 µM | A498 4.43 µM | OVCAR-8 3.64 µM | MDA-MB-435 4.71 µM | SNB-19 3.47 µM | MDA-MB-231 7.64 µM | MOLT-4 5.37 µM | OVCAR-4 8 µM | T47D 6.82 µM | MCF7 7.8 µM | CCRF-CEM 2.27 µM

COc1ccc(NCc2cnc3nc(N)nc(N)c3c2C)cc1
active: 786-0 0.254 µM | U-251 0.555 µM | HT-29 0.406 µM | HCT-116 0.0785 µM | SR 0.449 µM | OVCAR-8 0.167 µM | MDA-MB-435 0.428 µM | MDA-MB-231 0.121 µM | MOLT-4 0.493 µM | CCRF-CEM 0.57 µM
inactive: HOP-62 1.16 µM | HOP-92 5.93 µM | SN12C 3.85 µM | KM12 6.41 µM | TK-10 41.4 µM | A498 > 100 µM | SNB-19 21 µM | OVCAR-4 > 53.5 µM | T47D 15 µM | MCF7 2.13 µM

COc1ccc(C(=O)C#Cc2cnc(OC)nc2OC)cc1
active: SR 0.0491 µM | MOLT-4 0.0531 µM | MCF7 0.778 µM | CCRF-CEM 0.13 µM
inactive: HOP-62 17 µM | HOP-92 1.76 µM | SN12C 1.19 µM | 786-0 1.94 µM | KM12 2.68 µM | U-251 1.33 µM | HT-29 1.22 µM | HCT-116 1.32 µM | TK-10 1.67 µM | A498 18.7 µM | OVCAR-8 1.56 µM | MDA-MB-435 2.57 µM | SNB-19 12.2 µM | MDA-MB-231 32400 µM | OVCAR-4 6.5 µM | T47D 1.89 µM

CC[C@@]1(OP(=O)(O)O)C(=O)OCc2c1cc1n(c2=O)Cc2cc3ccccc3nc2-1
inactive: TK-10 2.55 µM | MDA-MB-231 3.37 µM | OVCAR-4 1.76 µM
active: HOP-62 0.253 µM | HOP-92 0.447 µM | SN12C 0.0883 µM | 786-0 0.0607 µM | KM12 0.398 µM | U-251 0.0603 µM | HT-29 0.319 µM | HCT-116 0.157 µM | SR 0.00274 µM | A498 0.0817 µM | OVCAR-8 0.224 µM | MDA-MB-435 0.339 µM | SNB-19 0.0798 µM | MOLT-4 0.014 µM | T47D 0.132 µM | MCF7 0.0358 µM | CCRF-CEM 0.00927 µM

CO/N=C(\C(=O)Nc1cncs1)c1csc(N)n1
inactive: HOP-62 > 10 µM | HOP-92 > 10 µM | SN12C > 10 µM | 786-0 > 10 µM | KM12 > 10 µM | U-251 > 10 µM | HT-29 > 10 µM | HCT-116 > 10 µM | TK-10 > 10 µM | SR > 10 µM | A498 > 10 µM | OVCAR-8 > 10 µM | MDA-MB-435 > 10 µM | SNB-19 > 10 µM | MDA-MB-231 > 10 µM | MOLT-4 > 10 µM | OVCAR-4 > 10 µM | T47D > 10 µM | MCF7 > 10 µM | CCRF-CEM > 10 µM

O=C(O)c1ccc(C(=O)c2ccccc2)c(C(=O)O)c1
inactive: HOP-62 > 100 µM | HOP-92 > 100 µM | SN12C > 100 µM | 786-0 > 100 µM | KM12 > 100 µM | U-251 > 100 µM | HT-29 > 100 µM | HCT-116 > 100 µM | TK-10 > 100 µM | SR > 100 µM | A498 > 100 µM | OVCAR-8 > 100 µM | MDA-MB-435 > 100 µM | SNB-19 > 100 µM | MDA-MB-231 > 100 µM | MOLT-4 > 100 µM | OVCAR-4 > 100 µM | T47D > 100 µM | MCF7 > 100 µM | CCRF-CEM > 100 µM

CCCC1C(CC)C(NC)C(C#N)(C#N)C1(C#N)C#N (stereo not given)
inactive: HOP-62 15 µM | HOP-92 14 µM | SN12C 15.1 µM | 786-0 15.4 µM | KM12 16.4 µM | U-251 28.1 µM | HT-29 13.6 µM | HCT-116 15.1 µM | TK-10 16.9 µM | SR 16.9 µM | A498 15.6 µM | OVCAR-8 20.7 µM | MDA-MB-435 25.3 µM | SNB-19 22.5 µM | MDA-MB-231 15.2 µM | MOLT-4 24.1 µM | OVCAR-4 28.2 µM | T47D 14.5 µM | MCF7 23.5 µM | CCRF-CEM 13.1 µM
